Data taken from PMC12171682, “Saarvienin A—A Novel Glycopeptide with Potent Activity against Drug‐Resistant Bacteria” (Angewandte Chemie (International Ed. in English), 2025).
Like-named read-outs stand apart in the source and are kept apart here.

Experiments:
[1] = tested on: E. faecalis DSM 12956 (VRE, vanB positive); details: broth microdilution, cation-adjusted Mueller-Hinton Broth II, ~4 × 10⁵ CFU/mL, 37 °C, 24 h; mean of three independent biological replicates, each in technical triplicate
[2] = tested on: E. coli WO153 (AB1157, recJ asmB1, ΔtolC); details: broth microdilution, cation-adjusted Mueller-Hinton Broth II, ~4 × 10⁵ CFU/mL, 37 °C, 24 h; mean of three independent biological replicates, each in technical triplicate
[3] = tested on: S. aureus N315 (MRSA); details: broth microdilution, cation-adjusted Mueller-Hinton Broth II, ~4 × 10⁵ CFU/mL, 37 °C, 24 h; mean of three independent biological replicates, each in technical triplicate
[4] = tested on: E. faecalis ATCC 29212; details: broth microdilution, 37 °C, 24 h
[5] = tested on: vancomycin‐resistant E. faecium clinical isolates with reduced susceptibility to daptomycin (n = 26); details: broth microdilution, MHB II, daptomycin with 50 µg/mL Ca2+, mean of two independent experiments
[6] = tested on: E. coli K12 ΔtolC; details: broth microdilution, cation-adjusted Mueller-Hinton Broth II, 37 °C, 24 h, mean of three independent biological replicates, each in technical triplicate
[7] = tested on: S. aureus DSM 11822 (MDR); details: broth microdilution, cation-adjusted Mueller-Hinton Broth II, ~4 × 10⁵ CFU/mL, 37 °C, 24 h; mean of three independent biological replicates, each in technical triplicate
[8] = tested on: S. aureus Mu50 (MRSA/VISA); details: broth microdilution, cation-adjusted Mueller-Hinton Broth II, ~4 × 10⁵ CFU/mL, 37 °C, 24 h; mean of three independent biological replicates, each in technical triplicate
[9] = tested on: M. tuberculosis H37Ra ATCC 25177
[10] = tested on: E. coli K12 ΔacrB; details: broth microdilution, cation-adjusted Mueller-Hinton Broth II, ~4 × 10⁵ CFU/mL, 37 °C, 24 h; mean of three independent biological replicates, each in technical triplicate
[11] = tested on: S. aureus HG001‐DRSA; details: daptomycin-resistant mutant of HG001; broth microdilution, cation-adjusted Mueller-Hinton Broth II, ~4 × 10⁵ CFU/mL, 37 °C, 24 h; mean of three independent biological replicates, each in technical triplicate
[12] = 26 VRE E. faecium clinical isolates

CN[C@H](CC(C)C)C(=O)N[C@H]1C(=O)N[C@@H](CC(N)=O)C(=O)N[C@H]2C(=O)N[C@H]3C(=O)N[C@H](C(=O)N[C@H](C(=O)O)c4cc(O)cc(O)c4-c4cc3ccc4O)[C@H](O)c3ccc(c(Cl)c3)Oc3cc2cc(c3O[C@@H]2O[C@H](CO)[C@@H](O)[C@H](O)[C@H]2O[C@H]2C[C@](C)(N)[C@H](O)[C@H](C)O2)Oc2ccc(cc2Cl)[C@H]1O [Vancomycin, vancomycin]
16 µg/mL: MIC, E. faecalis DSM 12956 (VRE, vanB positive) [1]
8 µg/mL: MIC, S. aureus Mu50 (MRSA/VISA) [8]
4 µg/mL: MIC, E. faecalis ATCC29212 ([4]; cation-adjusted Mueller-Hinton Broth II, ~4 × 10⁵ CFU/mL, mean of three independent biological replicates, each in technical triplicate) | MIC, E. faecalis ATCC29212 ([4]; reference strain in Table S5, MHB II, daptomycin with 50 µg/mL Ca2+, mean of two independent experiments) | MIC, S. aureus HG001‐DRSA [11]
32 µg/mL: MIC, E. coli WO153 (AB1157, recJ asmB1, ΔtolC) [2]
2 µg/mL: MIC, S. aureus N315 (MRSA) [3]
1 µg/mL: MIC, S. aureus DSM 11822 (MDR) [7]
> 64 µg/mL: MIC, Enterococcus faecium isolate 1 ([5]; clinical isolate 1, 37 °C, 24 h) | MIC, Enterococcus faecium isolate 2 ([5]; clinical isolate 2, 37 °C, 24 h) | MIC, Enterococcus faecium isolate 4 ([5]; clinical isolate 4, 37 °C, 24 h) | MIC, Enterococcus faecium isolate 5 ([5]; clinical isolate 5, 37 °C, 24 h) | MIC, Enterococcus faecium isolate 6 ([5]; clinical isolate 6, 37 °C, 24 h) | MIC, Enterococcus faecium isolate 7 ([5]; clinical isolate 7, 37 °C, 24 h) | MIC, Enterococcus faecium isolate 8 ([5]; clinical isolate 8, 37 °C, 24 h) | MIC, Enterococcus faecium isolate 9 ([5]; clinical isolate 9, 37 °C, 24 h) | MIC, Enterococcus faecium isolate 10 ([5]; clinical isolate 10, 37 °C, 24 h) | MIC, Enterococcus faecium isolate 11 ([5]; clinical isolate 11, 37 °C, 24 h) | MIC, Enterococcus faecium isolate 12 ([5]; clinical isolate 12, 37 °C, 24 h) | MIC, Enterococcus faecium isolate 13 ([5]; clinical isolate 13, 37 °C, 24 h) | MIC, Enterococcus faecium isolate 14 ([5]; clinical isolate 14, 37 °C, 24 h) | MIC, Enterococcus faecium isolate 15 ([5]; clinical isolate 15, 37 °C, 24 h) | MIC, Enterococcus faecium isolate 16 ([5]; clinical isolate 16, 37 °C, 24 h) | MIC, Enterococcus faecium isolate 17 ([5]; clinical isolate 17, 37 °C, 24 h) | MIC, Enterococcus faecium isolate 18 ([5]; clinical isolate 18, 37 °C, 24 h) | MIC, Enterococcus faecium isolate 19 ([5]; clinical isolate 19, 37 °C, 24 h) | MIC, Enterococcus faecium isolate 20 ([5]; clinical isolate 20, 37 °C, 24 h) | MIC, Enterococcus faecium isolate 21 ([5]; clinical isolate 21, 37 °C, 24 h) | MIC, Enterococcus faecium isolate 22 ([5]; clinical isolate 22, 37 °C, 24 h) | MIC, Enterococcus faecium isolate 23 ([5]; clinical isolate 23, 37 °C, 24 h) | MIC, Enterococcus faecium isolate 24 ([5]; clinical isolate 24, 37 °C, 24 h) | MIC, Enterococcus faecium isolate 25 ([5]; clinical isolate 25, 37 °C, 24 h) | MIC, Enterococcus faecium isolate 26 ([5]; clinical isolate 26, 37 °C, 24 h)
>64 µg/mL: MIC50 [5, 12] | MIC90 [5, 12] | MIC, E. coli K12 ΔtolC (tolC‐deficient) + PMBN ([6]; co‐incubated with sub‐lethal concentrations of polymyxin B nonapeptide (PMBN)) | MIC, E. coli K12 ΔtolC ([6]; without PMBN, ~4 × 10⁵ CFU/mL) | MIC, E. coli K12 ΔacrB [10]
64 µg/mL: MIC, Enterococcus faecium isolate 3 ([5]; clinical isolate 3, 37 °C, 24 h) | MIC, M. tuberculosis H37Ra ATCC 25177 [9]
